According to patent US10538555B2, “Macrocyclic inhibitors of the PD-1/PD-L1 and CD80(B7-1)/PD-L1 protein/protein interactions” (BRISTOL-MYERS SQUIBB COMPANY, priority 2014, dated 2020):
Where “and” joins values, the source holds several entries; their conditions need not be identical. Identical values can stand only once. *1 amine or outer side, *2 acyl side, *3 side chain or, on linkers, in order; H or OH if unused. Where a SMILES comes first, the peptide text is derived from it. Bridges are numbered along the chain shown (N, C = ends). [ ]: non-standard residue; d: D form. ξ: configuration not given here. Phe(3,4,5-F3) = N[C@@H](Cc1cc(F)c(F)c(F)c1)C(=O)O; Phe(3,4-F2) = N[C@@H](Cc1ccc(F)c(F)c1)C(=O)O; NMePhe(4-F) = CN[C@@H](Cc1ccc(F)cc1)C(=O)O; NMeW = CN[C@@H](Cc1c[nH]c2ccccc12)C(=O)O; Phe(4-F) = N[C@@H](Cc1ccc(F)cc1)C(=O)O; d(cisHyp) = O=C(O)[C@H]1C[C@@H](O)CN1; Bta = N[C@@H](Cc1csc2ccccc12)C(=O)O; Hyp = O=C(O)[C@@H]1C[C@@H](O)CN1; NMeF = CN[C@@H](Cc1ccccc1)C(=O)O; X1 = O=C([C@H]1COCCN1[*:1])[*:2]; dNMeF = CN[C@H](Cc1ccccc1)C(=O)O; dHyp = O=C(O)[C@H]1C[C@H](O)CN1; NMehSer = CN[C@@H](CCO)C(=O)O; NMeNle = CCCC[C@H](NC)C(=O)O; NMeV = CN[C@H](C(=O)O)C(C)C; dPip = O=C(O)[C@H]1CCCCN1; hSer = N[C@@H](CCO)C(=O)O; NMeA = CN[C@@H](C)C(=O)O; Orn = NCCC[C@H](N)C(=O)O; dThz = O=C(O)[C@H]1CSCN1; Dab = NCC[C@H](N)C(=O)O; Dap = NC[C@H](N)C(=O)O; ξC = NC(CS)C(=O)O

These compounds were tested against T1, Human PD-L1/PD-1 (Homo sapiens, UniProt Q9NZQ7) (assay: HTRF Human PD-L1/PD-1 binding assay (PD-1-Ig/PD-L1-His)). Details: PD-L1-His 10 nM, PD-1-Ig 20 nM; class symbol; read-out: HTRF Human PD-L1/PD-1 Binding Assay IC50 Range.
T1 construct: TVMV protease cleavage site (C); made in house; host or cells: HEK293T cells
Summary of the method: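 Compound preincubated 15 min with PD-L1-His (10 nM final), then PD-1-Ig (20 nM final) added for 15 min in dPBS with 0.1% BSA and 0.05% Tween-20. Detection by Eu-cryptate anti-Ig (1 nM) and APC anti-His (20 nM) after 30 min; 665/620 nm HTRF ratio. Proteins expressed in HEK293T.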

T1 sequence (Q9NZQ7 with tags, fused parts or gaps): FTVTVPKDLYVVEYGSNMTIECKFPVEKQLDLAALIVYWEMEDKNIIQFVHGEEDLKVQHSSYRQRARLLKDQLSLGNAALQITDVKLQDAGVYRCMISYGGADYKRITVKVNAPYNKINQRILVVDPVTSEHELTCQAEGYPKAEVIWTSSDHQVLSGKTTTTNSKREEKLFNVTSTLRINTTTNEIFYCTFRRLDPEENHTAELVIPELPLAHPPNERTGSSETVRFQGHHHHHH

IC50	Compound
1000 to 10000 nM	CCCC[C@H]1C(=O)N2CCC[C@@H]2C(=O)N[C@@H](CC(=O)O)C(=O)N[C@@H](C(C)C)C(=O)N(C)[C@@H](C(C)C)C(=O)N[C@@H](Cc2ccc(O)cc2)C(=O)N2CCC[C@@H]2C(=O)N[C@@H](Cc2c[nH]c3ccccc23)C(=O)N[C@@H](Cc2ccc(O)cc2)C(=O)N[C@@H](CC(C)C)C(=O)N[C@H](C(=O)NCC(N)=O)CSCC(=O)N[C@@H](Cc2ccc(F)cc2)C(=O)N(C)[C@@H](Cc2ccccc2)C(=O)N1C [Example 9241] ({CH2CO}-[Phe(4-F)][NMeF][NMeNle][dP]DV[NMeV]Y[dP]WYLCG-NH2; thioether N-13)
1 to 9.9 nM	CCCC[C@H]1C(=O)N2CCOC[C@@H]2C(=O)N[C@@H](CC(=O)O)C(=O)N[C@@H](C(C)C)C(=O)N(C)[C@@H](Cc2ccccc2)C(=O)N[C@@H](Cc2ccc(O)cc2)C(=O)N2CCOC[C@@H]2C(=O)N[C@@H](Cc2c[nH]c3ccccc23)C(=O)N[C@@H](Cc2ccc(O)cc2)C(=O)N[C@@H](CCCN)C(=O)N[C@H](C(=O)NCC(N)=O)CSCC(=O)N[C@@H](Cc2cc(F)c(F)c(F)c2)C(=O)N(C)[C@@H](Cc2ccccc2)C(=O)N1C [Example 9284] ({CH2CO}-[Phe(3,4,5-F3)][NMeF][NMeNle][X1]DV[NMeF]Y[X1]WY[Orn]CG-NH2; thioether N-13)
1 to 9.9 nM	CCCC[C@H]1C(=O)N2C[C@@H](O)C[C@@H]2C(=O)N[C@@H](CC(=O)O)C(=O)N[C@@H](C(C)C)C(=O)N(C)[C@@H](Cc2ccccc2)C(=O)N[C@@H](CCC(=O)O)C(=O)N2C[C@H](O)C[C@@H]2C(=O)N[C@@H](Cc2c[nH]c3ccccc23)C(=O)N[C@@H](Cc2ccc(O)cc2)C(=O)N[C@@H](CC(C)C)C(=O)N[C@H](C(=O)NCC(N)=O)CSCC(=O)N[C@@H](Cc2cc(F)c(F)c(F)c2)C(=O)N(C)[C@@H](Cc2ccccc2)C(=O)N1C [Example 9369] ({CH2CO}-[Phe(3,4,5-F3)][NMeF][NMeNle][dHyp]DV[NMeF]E[d(cisHyp)]WYLCG-NH2; thioether N-13)
1 to 9.9 nM	CCCC[C@H]1C(=O)N(C)[C@@H](CCCC)C(=O)N[C@@H](CCC(=O)O)C(=O)N[C@H](C(=O)NCC(N)=O)CSCC(=O)N[C@@H](Cc2ccc(O)cc2)C(=O)N(C)[C@@H](C)C(=O)N[C@@H](CC(N)=O)C(=O)N2CCC[C@H]2C(=O)N[C@@H](CN)C(=O)N[C@@H](CC(C)C)C(=O)N2C[C@H](O)C[C@H]2C(=O)N[C@@H](Cc2c[nH]c3ccccc23)C(=O)N[C@@H](CCC(=O)O)C(=O)N[C@@H](Cc2c[nH]c3ccccc23)C(=O)N1C [Example 5232] ({CH2CO}-Y[NMeA]NP[Dap]L[Hyp]WEW[NMeNle][NMeNle]ECG-NH2; thioether N-14)
10 to 99.9 nM	CCCC[C@H]1C(=O)N(C)[C@@H](CCCC)C(=O)N[C@@H](CCCNC(=N)N)C(=O)NC(C(=O)NCC(N)=O)CSCC(=O)N[C@@H](Cc2ccc(O)cc2)C(=O)N(C)[C@@H](C)C(=O)N[C@@H](CC(N)=O)C(=O)N2CCC[C@H]2C(=O)N[C@@H](CCO)C(=O)N[C@@H](CCO)C(=O)N2CCC[C@H]2C(=O)N[C@@H](Cc2c[nH]c3ccccc23)C(=O)N[C@@H](CO)C(=O)N[C@@H](Cc2csc3ccccc23)C(=O)N1C (stereo partly drawn) [Example 10019] ({CH2CO}-Y[NMeA]NP[hSer][hSer]PWS[Bta][NMeNle][NMeNle]R[ξC]G-NH2; thioether N-14)
1 to 9.9 nM	CCCC[C@H]1C(=O)N(C)[C@@H](CCCC)C(=O)N[C@@H](CCCNC(=N)N)C(=O)NC(C(=O)NCC(N)=O)CSCC(=O)N[C@@H](Cc2ccc(O)cc2)C(=O)N(C)[C@@H](C)C(=O)N[C@@H](CC(N)=O)C(=O)N2CCC[C@H]2C(=O)N[C@@H](CO)C(=O)N[C@@H](CCO)C(=O)N2C[C@H](O)C[C@H]2C(=O)N[C@@H](Cc2c[nH]c3ccccc23)C(=O)N[C@@H](CCO)C(=O)N[C@@H](Cc2csc3ccccc23)C(=O)N1C (stereo partly drawn) [Example 10050] ({CH2CO}-Y[NMeA]NPS[hSer][Hyp]W[hSer][Bta][NMeNle][NMeNle]R[ξC]G-NH2; thioether N-14)
10 to 99.9 nM	CCCC[C@H]1C(=O)N[C@@H](CN)C(=O)N[C@H](C(=O)NCC(N)=O)CSCC(=O)N[C@@H](Cc2ccc(O)cc2)C(=O)N(C)[C@@H](C)C(=O)N[C@@H](CC(N)=O)C(=O)N2CCC[C@H]2C(=O)N[C@@H](Cc2c[nH]cn2)C(=O)N[C@@H](CCC(=O)O)C(=O)N2C[C@H](O)C[C@H]2C(=O)N[C@@H](Cc2c[nH]c3ccccc23)C(=O)N[C@@H](CCN)C(=O)N[C@@H](Cc2c[nH]c3ccccc23)C(=O)N(C)[C@@H](Cc2c[nH]c3ccccc23)C(=O)N1C [Example 5160] ({CH2CO}-Y[NMeA]NPHE[Hyp]W[Dab]W[NMeW][NMeNle][Dap]CG-NH2; thioether N-14)

The remaining lines, values behind:

Compound	IC50
COCC[C@H]1C(=O)N2C[C@@H](O)C[C@@H]2C(=O)N[C@@H](CC(=O)O)C(=O)N[C@@H](C(C)C)C(=O)N(C)[C@@H](Cc2ccccc2)C(=O)N[C@@H](Cc2ccc(O)cc2)C(=O)N2CCOC[C@@H]2C(=O)N[C@@H](Cc2c[nH]c3ccccc23)C(=O)N[C@@H](Cc2ccc(O)cc2)C(=O)N[C@@H](CCCN)C(=O)N[C@H](C(=O)NCC(N)=O)CSCC(=O)N[C@@H](Cc2cc(F)c(F)c(F)c2)C(=O)N(C)[C@@H](Cc2ccccc2)C(=O)N1C [Example 9265] ({CH2CO}-[Phe(3,4,5-F3)][NMeF][NMehSer](Me)[dHyp]DV[NMeF]Y[X1]WY[Orn]CG-NH2; thioether N-13)	1 to 9.9 nM
CCCC[C@H]1C(=O)N2CCC[C@@H]2C(=O)N[C@@H](CC(=O)O)C(=O)N[C@@H](C(C)C)C(=O)N(C)[C@@H](Cc2ccccc2)C(=O)N[C@@H](CC(=O)O)C(=O)N2CCCC[C@@H]2C(=O)N[C@@H](Cc2c[nH]c3ccccc23)C(=O)N[C@@H](Cc2ccc(O)cc2)C(=O)N[C@@H](CO)C(=O)N[C@H](C(=O)NCC(N)=O)CSCC(=O)N[C@@H](Cc2cc(F)c(F)c(F)c2)C(=O)N(C)[C@@H](Cc2ccc(F)cc2)C(=O)N1C [Example 10573] ({CH2CO}-[Phe(3,4,5-F3)][NMePhe(4-F)][NMeNle][dP]DV[NMeF]D[dPip]WYSCG-NH2; thioether N-13)	1 to 9.9 nM
CCCC[C@H]1C(=O)N[C@@H](CC(N)=O)C(=O)N2CCC[C@H]2C(=O)N[C@@H](CO)C(=O)N[C@@H](CCO)C(=O)N2CCC[C@H]2C(=O)N[C@@H](Cc2c[nH]c3ccccc23)C(=O)N[C@@H](CO)C(=O)N[C@@H](Cc2c[nH]c3ccccc23)C(=O)N(C)[C@@H](C)C(=O)N(C)[C@@H](C)C(=O)N[C@@H](CCC(=O)O)C(=O)NC(C(=O)NCC(N)=O)CSCC(=O)N[C@@H](Cc2ccc(O)cc2)C(=O)N1C (stereo partly drawn) [Example 10209] ({CH2CO}-Y[NMeNle]NPS[hSer]PWSW[NMeA][NMeA]E[ξC]G-NH2; thioether N-14)	1000 to 10000 nM
CCCC[C@H]1C(=O)N(C)[C@@H](CCCC)C(=O)N[C@@H](C)C(=O)N[C@H](C(=O)NCC(N)=O)CSCC(=O)N[C@@H](Cc2ccc(O)cc2)C(=O)N2CCOC[C@H]2C(=O)N[C@@H](CC(=O)O)C(=O)N2CCC[C@H]2C(=O)N[C@@H](Cc2c[nH]cn2)C(=O)N[C@@H](CC(C)C)C(=O)N2C[C@H](O)C[C@H]2C(=O)N[C@@H](Cc2c[nH]c3ccccc23)C(=O)N[C@@H](CO)C(=O)N[C@@H](Cc2c[nH]c3ccccc23)C(=O)N1C [Example 1525]	1 to 9.9 nM
CCCC[C@H]1C(=O)N(C)[C@@H](CCCC)C(=O)N[C@@H](CCC(=O)O)C(=O)N[C@H](C(=O)NCC(N)=O)CSCC(=O)N[C@@H](Cc2ccc(OC)cc2)C(=O)N(C)[C@@H](C)C(=O)N[C@@H](CCN)C(=O)N2CCC[C@H]2C(=O)N[C@@H](Cc2cnc[nH]2)C(=O)N[C@@H](CCC(=O)O)C(=O)N2C[C@H](O)C[C@H]2C(=O)N[C@@H](Cc2c[nH]c3ccccc23)C(=O)N[C@@H](CC(=O)O)C(=O)N[C@@H](Cc2c[nH]c3ccccc23)C(=O)N1C [Example 7132] ({CH2CO}-Y(Me)[NMeA][Dab]PHE[Hyp]WDW[NMeNle][NMeNle]ECG-NH2; thioether N-14)	100 to 990 nM and 10 to 99.9 nM
CCCC[C@H]1C(=O)N2CCC[C@@H]2C(=O)N[C@@H](CC(=O)O)C(=O)N[C@@H](C(C)C)C(=O)N(C)[C@@H](Cc2ccccc2)C(=O)N[C@@H](Cc2ccc(O)cc2)C(=O)N2CSC[C@@H]2C(=O)N[C@@H](Cc2c[nH]c3ccccc23)C(=O)N[C@@H](Cc2ccc(O)cc2)C(=O)N[C@@H](CC(C)C)C(=O)N[C@H](C(=O)NCC(N)=O)CSCC(=O)N[C@@H](Cc2ccccc2)C(=O)N(C)[C@@H](Cc2ccccc2)C(=O)N1C [Example 10068] ({CH2CO}-F[NMeF][NMeNle][dP]DV[NMeF]Y[dThz]WYLCG-NH2; thioether N-13)	1 to 9.9 nM
CCCC[C@H]1C(=O)N(C)[C@@H](CCCC)C(=O)N[C@@H](C)C(=O)N[C@H](C(=O)NCC(N)=O)CSCC(=O)N[C@@H](Cc2ccc(O)cc2)C(=O)N(C)[C@@H](C)C(=O)N[C@@H](CC(=O)O)C(=O)N2CCC[C@H]2C(=O)N[C@@H](Cc2cnc[nH]2)C(=O)N[C@@H](CCCCN)C(=O)N2C[C@H](O)C[C@H]2C(=O)N[C@@H](Cc2c[nH]c3ccccc23)C(=O)N[C@@H](CO)C(=O)N[C@@H](Cc2c[nH]c3ccccc23)C(=O)N1C [Example 1247] ({CH2CO}-Y[NMeA]DPHK[Hyp]WSW[NMeNle][NMeNle]ACG-NH2; thioether N-14)	10 to 99.9 nM

Same assay, conditions: PD-L1-His 10 nM, PD-1-Ig 20 nM; read-out: HTRF Human PD-L1/PD-1 Binding Assay IC50

IC50	Compound
2.7 nM	CCCC[C@H]1C(=O)N2C[C@H](O)C[C@@H]2C(=O)N[C@@H](CC(=O)O)C(=O)N[C@@H](C(C)C)C(=O)N(C)[C@H](Cc2ccccc2)C(=O)N[C@@H](CCC(=O)O)C(=O)N2C[C@H](O)C[C@@H]2C(=O)N[C@@H](Cc2c[nH]c3ccccc23)C(=O)N[C@@H](Cc2ccc(O)cc2)C(=O)N[C@@H](CCC(=O)O)C(=O)N[C@H](C(=O)NCC(N)=O)CSCC(=O)N[C@@H](Cc2ccc(F)c(F)c2)C(=O)N(C)[C@@H](Cc2ccccc2)C(=O)N1C [Example 9313] ({CH2CO}-[Phe(3,4-F2)][NMeF][NMeNle][d(cisHyp)]DV[dNMeF]E[d(cisHyp)]WYECG-NH2; thioether N-13)
